Reference: publication PMC5607274, “An iterative compound screening contest method for identifying target protein inhibitors using the tyrosine-protein kinase Yes” (Scientific Reports, 2017)

Biological target: T1, human recombinant Yes [a.a. 2–543 (end)] (Homo sapiens, UniProt P07947)
T1 construct: human recombinant Yes [a.a; 2–543 (end)]; purchased BPS Bioscience 40488
Assay: ADP-Glo kinase assay, inhibition rates of Yes phosphorylation activity (first and second screening)
Type: biochemical
Conditions: first screening; mean of n = 4 wells; 10 μmol L−1 compound
Protocol: All inhibitory assays of the phosphorylation activity of Yes were performed in accordance with the Promega Technical Manual for the ADP-Glo™ Kinase Assay (Fitchburg, WI, USA. Catalog number: V9102). The human recombinant Yes [a.a. 2–543 (end)] was purchased from BPS Bioscience (catalog number: 40488). The details of the assay protocol and reagent information are given elsewhere.
The screening was conducted in three steps consisting of the first screening, the second screening, and the IC50 determination, as can be illustrated in Fig. 1b. First, we determined the inhibition rates of the 1,991 compounds. Each compound was placed in 4 wells of a 384-well plate. In total, 80 compounds were assayed on one plate and the other wells were used for positive and negative controls. The compounds were randomly placed on plates so that compounds proposed by one group were not placed on a plate together. A mean of four inhibition rates for each compound was compared to criteria for the first screening. […] Second, the inhibition rates of the screened compounds were determined on one plate using the same procedure of the first screening, where compounds were dissolved from fresh powder. […] Screened compounds were then evaluated for their IC50 values.

T1 sequence (P07947 2-543): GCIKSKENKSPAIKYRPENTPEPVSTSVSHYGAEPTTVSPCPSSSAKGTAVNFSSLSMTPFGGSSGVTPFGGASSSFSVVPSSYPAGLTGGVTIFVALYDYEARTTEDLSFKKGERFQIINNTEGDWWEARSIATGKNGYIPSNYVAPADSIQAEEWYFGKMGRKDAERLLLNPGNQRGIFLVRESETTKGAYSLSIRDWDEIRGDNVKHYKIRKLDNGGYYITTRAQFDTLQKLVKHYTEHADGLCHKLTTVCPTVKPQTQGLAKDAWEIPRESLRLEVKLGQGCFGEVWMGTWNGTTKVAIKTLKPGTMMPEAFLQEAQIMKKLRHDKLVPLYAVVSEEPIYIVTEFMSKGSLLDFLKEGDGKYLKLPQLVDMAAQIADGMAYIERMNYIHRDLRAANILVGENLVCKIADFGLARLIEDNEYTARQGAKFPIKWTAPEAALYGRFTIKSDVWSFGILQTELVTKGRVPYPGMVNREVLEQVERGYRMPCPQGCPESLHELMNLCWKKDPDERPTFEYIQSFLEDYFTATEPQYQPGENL

| SMILES | First screening IR (inhibition rate) |
| --- | --- |
| O=C(CSc1n[nH]c(-c2cccs2)n1)Nc1ccc(-c2ccccc2)cc1 [Compound Z19449989] | 4% |
| CC(Sc1n[nH]c(-c2cccs2)n1)C(=O)c1c[nH]c2ccccc12 (centres unmarked) [Compound Z19450299] | 17% |
| CC(Sc1n[nH]c(-c2cccs2)n1)c1nc2ccccc2c(=O)[nH]1 (centres unmarked) [Compound Z19451548] | 2% |
| O=C(CSc1nnc(-c2c[nH]c3ccccc23)n1-c1ccc(Cl)cc1)N1CCNC1=O [Compound Z19511505] | 13% |
| COC(=O)c1c2c(nc3ccccc13)/C(=C\c1ccc3c(c1)OCO3)CCC2 [Compound Z19539846] | -2% |
| O=C(CSc1nc2ccccc2[nH]1)NC(=O)NCc1ccccc1 [Compound Z19649872] | 7% |
| O=C(CSc1nc2ccccc2s1)Nc1cccc2c1C(=O)c1ccccc1C2=O [Compound Z19654122] | 6% |
| CCc1cccc(NC(=O)COC(=O)Cc2cccc3ccccc23)c1 [Compound Z19678477] | 7% |
| CCn1c2ccccc2c2cc(NC(=O)COC(=O)c3c4c(nc5ccccc35)CCCC4)ccc21 [Compound Z19690549] | 1% |
| CC(C)N(c1ccccc1)c1ccc(NC(=O)COC(=O)c2c3c(nc4ccccc24)CCCC3)cc1 [Compound Z19690670] | 10% |
| Cc1ccccc1Nc1nc(N)nc(CSc2ccccc2)n1 [Compound Z19751109] | 28% |
| O=C(COc1c(Br)cc(Br)c2cccnc12)N1CCCCC1 [Compound Z19811005] | 5% |
| COc1ccccc1NC(=O)c1ccc(NC(=O)COc2ccc(-c3ccccc3)cc2)cc1 [Compound Z19829052] | 3% |
| Cc1ccccc1Nc1nc(N)nc(CSc2nc3ccccc3c(=O)n2CCCN2CCOCC2)n1 [Compound Z19837406] | -7% |
| O=C(CSc1nc2ccccc2c(=O)n1CCCN1CCOCC1)Nc1ccc2ccccc2c1 [Compound Z19837911] | 46% |
| COc1ccc(-n2c(SCC(=O)N3CCCCCC3)nnc2-c2ccc(Cl)cc2)cc1 [Compound Z19871234] | 2% |
| COc1cccc(-c2nnc(SCC(=O)N3CCOCC3)n2-c2ccc(C)cc2)c1 [Compound Z19982748] | 27% |
| O=C(CSc1nnc(COc2ccccc2Cl)n1-c1ccccc1)N1CCc2ccccc2C1 [Compound Z20151781] | -5% |
| Cc1cccc(C)c1Nc1nnc(SCC(=O)NC(Cc2c[nH]c3ccccc23)C(=O)O)s1 (centres unmarked) [Compound Z20162836] | 3% |
| Cc1ccc(NC(=O)C(C)Sc2ncnc3sc4c(c23)CCC4)cc1 (centres unmarked) [Compound Z20227630] | -9% |
| Cc1sc2ncnc(SCC(=O)Nc3ncc(Cl)c(C)c3Cl)c2c1C [Compound Z20229401] | -1% |
| CC(Sc1nnc2ccccn12)C(=O)Nc1nc(-c2ccc(Cl)c(Cl)c2)cs1 (centres unmarked) [Compound Z20241270] | 4% |
| CC(Sc1nnc2ccccn12)C(=O)Nc1nc(-c2ccc(F)c(F)c2)cs1 (centres unmarked) [Compound Z20241790] | 21% |
| Cc1cc(SCC(=O)NC(=O)NC2CCCC2)nc2ccccc12 [Compound Z20243594] | 8% |

| SMILES | First screening IR (inhibition rate) |
| --- | --- |
| Cc1cc(SCC(=O)c2cc(C)n(-c3ccccc3F)c2C)nc2ccccc12 [Compound Z20243606] | 5% |
| Cc1ccc(C)c(-n2nnnc2SC(C)C(=O)Nc2ccc(Cl)cn2)c1 (centres unmarked) [Compound Z21689617] | 8% |
| COCCn1cnc2c1c(=O)n(CC(=O)NC(=O)NC1CCCCC1C)c(=O)n2Cc1ccccc1 (centres unmarked) [Compound Z24102979] | -2% |
| CCn1cnc2c1c(=O)n(CC(=O)N1CCC(Cc3ccccc3)CC1)c(=O)n2Cc1ccccc1 [Compound Z24103907] | 9% |
| COC(=O)c1ccc(CNC(=O)Cn2c(=O)c3c(ncn3CCC(C)C)n(Cc3ccccc3)c2=O)cc1 [Compound Z24149625] | 8% |
| C=CCn1c(SCc2cc(=O)n3ccsc3n2)nnc1-c1ccncc1 [Compound Z24172012] | 4% |
| C=CCn1c(COc2ccccc2F)nnc1SCCCn1c(=O)[nH]c2ccccc21 [Compound Z24188026] | -6% |
| Cc1ccc(C(=O)C(Sc2nnc(C3COc4ccccc4O3)n2C)c2ccc(C)cc2)cc1 (centres unmarked) [Compound Z24312958] | 0% |
| COc1ccc(S(=O)(=O)NCC(=O)OCC(=O)Nc2ccc(Cl)c(C(F)(F)F)c2)cc1 [Compound Z24395276] | 8% |
| C=CCN(CC(=O)Nc1ccc(S(=O)(=O)N2CCOCC2)cc1)S(=O)(=O)c1ccccc1C(F)(F)F [Compound Z24398732] | 0% |
| CC(C)(C)c1ccc(OCc2nnc(SCC(=O)N3CCC(c4ccccc4)=N3)n2N)cc1 [Compound Z24578166] | 40% |
| O=C(COc1cccnc1[N+](=O)[O-])Nc1ccc2c(c1)OCCO2 [Compound Z24778709] | 9% |
| Cc1ccc(SCc2nc(N)nc(Nc3ccccc3C)n2)cc1C [Compound Z24835676] | -13% |
| Cc1cc(C)c(NC(=O)CNC(=O)COc2ccccc2C(=O)N2CCCCC2)c(C)c1 [Compound Z25138787] | -1% |
| COc1ccccc1NC(=O)c1ccc(NC(=O)COc2ccc(-n3cnnn3)cc2)cc1 [Compound Z25181441] | 17% |
| CC(Sc1n[nH]c(-c2ccccc2Br)n1)C(=O)Nc1ccc(F)cc1 (centres unmarked) [Compound Z25191222] | 4% |
| Cc1ccc2nc(CSc3n[nH]c(-c4ccccc4)n3)cn2c1 [Compound Z25398010] | -4% |
| CC(Sc1n[nH]c(-c2ccccc2)n1)C(=O)c1c[nH]c2ccccc12 (centres unmarked) [Compound Z25398193] | 49% |
| COC(=O)c1cc(CSc2n[nH]c(-c3ccccc3)n2)oc1C [Compound Z25398505] | 1% |
| O=C(CSc1n[nH]c(-c2ccccc2)n1)N1N=C(c2ccc(Cl)cc2)CC1c1ccco1 (centres unmarked) [Compound Z25399394] | 13% |
| Cc1oc2cc(OCC(=O)N(C)C3CCS(=O)(=O)C3)ccc2c(=O)c1-c1c(F)cccc1Cl (centres unmarked) [Compound Z25645184] | -1% |
| CC(O)CNc1nc2ccccc2n1CC(=O)NCc1cccs1 (centres unmarked) [Compound Z25766910] | -11% |
| CC(=O)CCc1ccc(OCc2cc(=O)n3cc(C)ccc3n2)cc1 [Compound Z25824142] | -24% |
